Measurements published in patent publication US20080027082A1, “USE OF ADENOSINE A1 ANTAGONISTS IN RADIOCONTRAST MEDIA INDUCED NEPHROPATHY” (priority 2006, published 2008).
Values belong to the compound of their own block, whether it stands above or below them.

Key:
[1] = tested on: radiocontrast media induced nephropathy; conditions: Shammas, 2001, Welch, 2002, Huber; cited from earlier work
Permeability (Table 1) = format: in vitro ADME
PGP = PGP (Homo sapiens, UniProt P08183); experiment: PGP-factor (Table 1); format: in vitro ADME
[2] = tested on: renal hemodynamics and oxygenation; experiment: renal blood flow and oxygenation following radiocontrast media (iodixanol) in anesthetized rats; format: in vivo, Wistar rats
Experimental: The experimental protocol was based on a previously published methodology. The experiments were performed using adult male 3-4 months old Wistar rats. Body weight ranged from 250 to 400 g. The rats received a standard chow diet. Feeding and drinking was discontinued approx. 12 hours before the surgery. The animals were anesthetized by intraperitoneal injection of urethane solution ([…]; 6 ml per kg), and placed on a heated table to maintain body temperature at 37° C. throughout surgery and subsequent experiments. After an incision in the left groin the femoral artery was carefully prepared and cannulated to measure the mean arterial blood pressure. Another catheter was placed into the carotid artery for administration of contrast medium. Finally, an inflatable cuff was placed around the abdominal aorta above the origin of the renal arteries. A servo controlled inflation of the cuff allowed for the reduction and maintenance of the renal perfusion pressure at a preset levels. Two 500 μm diameter optical fibers were implanted into the cortex and the outer medulla of left kidney to determine local laser-Doppler fluxes and an ultrasound transit time flowprobe was placed around the renal artery of the same kidney to determine total kidney blood flow (RBF). Renal oxygen levels (oxygen partial pressure=pO2) was likewise determined locally (cortical and medullary pO2, respectively; OxyLite, Oxford Optronics). After implantation and stabilization, the experiment was started by measuring hemodynamic and oxygenation parameters under baseline conditions. Vehicle or substance 1 (5 mg/kg as an intravenous bolus) were then administered. New measurements were performed, and 30 min after vehicle or substance 1 administration, lodixanol (Visipaque 320; 1.5 mL i.a.; Amersham Buchier, Braunschweig, Germany), or vehicle was applied. The experimental groups were thus: 1. Vehicle+Vehicle (‘control’), Vehicle+Visipaque, and sunstance 1+Visipaque.

[3] = tested on: radiocontrast media-dependent acute kidney failure; experiment: diuresis and natriuresis following radiocontrast media (diatrizoate) in anesthetized rats; format: in vivo, Sprague-Dawley rats; conditions: for diuresis / sodium excretion: mean ± SEM
Experimental: The radiocontrast media-dependent acute kidney failure was induced using an experimental protocol based on that published by the group of Osswald,^22 Male Sprague-Dawley rats of approximately 300 g body weight were acclimatized for at least 1 week before the start of the chronic pretreatment with the nitric oxide synthase inhibitor N-nitro-L-arginine methyl ester (L-NAME for 7-9 weeks at a daily dose of 5 mg/kg). For the experiments, the overnight fasted rats (which had continued free access to drinking water) were anesthetized with Inactin (80 mg/kg, given i.p. as a bolus). Catheters were placed (i) in the trachea, (ii) in one jugular vein (for radiocontrast medium administration, and background saline infusion; see below), (iii) in the other jugular vein for vehicle or sunstance 1 administration, (iv) in the carotid artery for blood sampling, and part of the background saline infusion; see below), and (v) in the bladder for urine collection. The rats were kept on a heated table to maintain their body temperature at 37° C. After collecting urine samples for 60-90 min for baseline measurements, the animals received vehicle or substance 1 as follows: a loading bolus of 0.15, or 1.5 mg substance 1 per kg, or vehicle, in a volume of 1 mukg, was applied intravenously, followed by a continuous intravenous infusion at a rate of […] substance 1 per kg per min, or vehicle, in a volume of 11 μL/kg·min until the end of the experiment. With these dose regimens steady-state plasma levels of substance 1 were 59±23, and 314±36 ng/mL, respectively. Ten minutes after the start of the substance 1 (or vehicle) treatment, diatrizoate (meglumine salt, Urolux, 0.61 g diatrizoate/mL, corresponding to a total iodine content of 290 mg/mL, Sanochemia Diagnostics, Neuss, Germany), prewarmed at body temperature, was infused iv over 3 min at a dose of 2.55 mL/kg, corresponding to 740 mg iodine/kg (the timepoint of contrast medium administration was defined as t0). A background saline solution was infused from the beginning and maintained at a rate of ˜1.2 mL/h per 100 g until the end of the experiments (0.24 mL/h via the arterial catheter, and 0.96 mL/h via the venous line). This infusion was required to compensate for the volume loss due to the operation, and the subsequent blood sampling, but also to insure the patency of the arterial catheter between the blood sampling timepoints. Urine samples were collected according to the following schedule: baseline (60-90 min preceding the start of substance 1, or vehicle, administration), t0-30 min (0.5 h timepoint), 30-60 min (1 h timepoint), 60-120 min (2 h timepoint), and 120-180 min (3 h timepoint). Plasma samples were taken at the end of each of the above periods. The measured values of urine volume, and urine levels of Na^+ were used to calculate the rates of diuresis and natriuresis over the time intervals mentioned above.

phosphodiesterase PDE4 = phosphodiesterase PDE4 inhibition (enzyme profiling); format: biochemical; conditions: read-out: calculated pKi of the PDE4 inhibition (converted)
Excerpt: (§1) The phosphodiesterase PDE4 inhibiting activity may be used for titration purposes of patients. The phosphodiesterase PDE4 inhibiting activity of the compounds described herein prevents overdosage of the selective A1 antagonist by alarming the patients with self-evident, non-serious signals like e.g. headache before serious events like e.g. CNS convulsion can occur.

[4] = tested on: phosphodiesterases (PDE 1, 2, 3, 5 and 6); experiment: inhibition of other phosphodiesterases (enzyme profiling); format: biochemical; conditions: relative to PDE4 inhibition
Excerpt: as §1

[5] = steady-state plasma levels in anesthetized L-NAME pretreated rats; format: in vivo, Sprague-Dawley rats; conditions: rat
Experimental: The radiocontrast media-dependent acute kidney failure was induced using an experimental protocol based on that published by the group of Osswald,^22 Male Sprague-Dawley rats of approximately 300 g body weight were acclimatized for at least 1 week before the start of the chronic pretreatment with the nitric oxide synthase inhibitor N-nitro-L-arginine methyl ester (L-NAME for 7-9 weeks at a daily dose of 5 mg/kg). For the experiments, the overnight fasted rats (which had continued free access to drinking water) were anesthetized with Inactin (80 mg/kg, given i.p. as a bolus). Catheters were placed (i) in the trachea, (ii) in one jugular vein (for radiocontrast medium administration, and background saline infusion; see below), (iii) in the other jugular vein for vehicle or sunstance 1 administration, (iv) in the carotid artery for blood sampling, and part of the background saline infusion; see below), and (v) in the bladder for urine collection. The rats were kept on a heated table to maintain their body temperature at 37° C. […] The measured values of urine volume, and urine levels of Na^+ were used to calculate the rates of diuresis and natriuresis over the time intervals mentioned above.

adenosine A1 receptor = target: T1, adenosine A1 receptor (Homo sapiens, UniProt P30542); experiment: receptor binding and enzyme profiling in a wide range of assays
T1 sequence (P30542 1-326): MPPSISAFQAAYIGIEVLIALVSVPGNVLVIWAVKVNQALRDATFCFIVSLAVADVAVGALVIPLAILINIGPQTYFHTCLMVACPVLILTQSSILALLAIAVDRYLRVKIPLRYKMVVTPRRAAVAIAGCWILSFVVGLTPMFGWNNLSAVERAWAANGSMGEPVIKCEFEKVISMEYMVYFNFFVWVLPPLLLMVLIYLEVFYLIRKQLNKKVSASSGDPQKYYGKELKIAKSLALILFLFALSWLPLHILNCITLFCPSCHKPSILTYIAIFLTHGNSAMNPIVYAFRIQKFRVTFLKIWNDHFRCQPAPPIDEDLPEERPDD
Excerpt: as §1

[6] = Low dose, 0.5 h after CM (diatrizoate)
[7] = Low dose, 1 h after CM (diatrizoate)
[8] = Low dose, 2 h after CM (diatrizoate)
[9] = Low dose, 3 h after CM (diatrizoate)
[10] = high dose, 0.5 h after CM (diatrizoate)
[11] = high dose, 1 h after CM (diatrizoate)
[12] = high dose, 2 h after CM (diatrizoate)
[13] = high dose, 3 h after CM (diatrizoate)

Sequence of PGP (P08183 whole entry): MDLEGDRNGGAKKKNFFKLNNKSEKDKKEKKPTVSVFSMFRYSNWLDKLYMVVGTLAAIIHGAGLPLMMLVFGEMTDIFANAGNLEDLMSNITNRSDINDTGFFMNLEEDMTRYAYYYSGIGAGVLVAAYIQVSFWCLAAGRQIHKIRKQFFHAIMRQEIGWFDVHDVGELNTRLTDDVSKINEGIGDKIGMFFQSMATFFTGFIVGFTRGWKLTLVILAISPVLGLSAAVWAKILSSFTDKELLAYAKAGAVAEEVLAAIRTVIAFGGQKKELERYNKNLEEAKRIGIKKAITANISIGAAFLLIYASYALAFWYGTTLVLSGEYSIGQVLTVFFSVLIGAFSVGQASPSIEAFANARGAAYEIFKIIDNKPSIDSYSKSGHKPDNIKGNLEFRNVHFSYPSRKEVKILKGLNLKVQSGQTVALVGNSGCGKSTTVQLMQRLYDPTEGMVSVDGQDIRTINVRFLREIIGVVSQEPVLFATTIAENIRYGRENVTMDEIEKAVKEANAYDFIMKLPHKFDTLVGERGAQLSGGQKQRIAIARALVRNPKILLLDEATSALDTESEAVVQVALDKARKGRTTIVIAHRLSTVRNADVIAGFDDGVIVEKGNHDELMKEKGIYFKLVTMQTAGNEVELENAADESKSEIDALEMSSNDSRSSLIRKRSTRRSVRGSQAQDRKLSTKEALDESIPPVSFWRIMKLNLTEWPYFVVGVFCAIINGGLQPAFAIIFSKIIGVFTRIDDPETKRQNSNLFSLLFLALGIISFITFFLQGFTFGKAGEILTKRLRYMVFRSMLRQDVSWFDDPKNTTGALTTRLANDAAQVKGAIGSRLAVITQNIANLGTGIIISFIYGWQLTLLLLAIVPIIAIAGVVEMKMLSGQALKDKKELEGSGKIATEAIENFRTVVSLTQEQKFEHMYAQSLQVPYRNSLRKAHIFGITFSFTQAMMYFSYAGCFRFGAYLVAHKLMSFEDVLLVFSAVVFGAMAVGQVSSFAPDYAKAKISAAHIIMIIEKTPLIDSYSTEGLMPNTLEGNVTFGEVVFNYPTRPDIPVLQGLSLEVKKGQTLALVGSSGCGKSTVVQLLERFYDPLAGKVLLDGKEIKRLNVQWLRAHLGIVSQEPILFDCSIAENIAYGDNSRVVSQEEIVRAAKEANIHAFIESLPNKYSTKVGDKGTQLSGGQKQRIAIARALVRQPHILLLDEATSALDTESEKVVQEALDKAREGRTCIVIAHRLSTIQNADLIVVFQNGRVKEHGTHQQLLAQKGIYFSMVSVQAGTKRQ

Compound: Cn1c(=O)c2[nH]cnc2n(C)c1=O [Aminophylline]
- protection against radiocontrast media induced nephropathy [1]: does not appear to add a protective role

Compound: CCCn1c(=O)c2[nH]c(C34CC5CC(CC3C5)C4)nc2n(CCC)c1=O [KW3902, reference compound]
- Permeability (%) (Permeability (Table 1)): 31.1%
- PGP-factor (PGP): 1.4

Compound: Cn1c(=O)c2[nH]cnc2n(C)c1=O [theophylline]
- protection against radiocontrast media induced nephropathy [1]: effective

Now from value to compound, other results behind:

- Permeability (%) (Permeability (Table 1)): 37.4%
- PGP-factor (PGP): 1.5
- Ki (phosphodiesterase PDE4): 750 nM
- activities on other phosphodiesterases (PDE 1, 2, 3, 5 and 6), fold lower than on PDE4 [4]: at least 25 fold
- steady-state plasma level ([5]; iv loading bolus 0.15 mg/kg, then infusion 1.5 pg per kg per min (so in the source)): 59 ± 23 ng/mL
- steady-state plasma level ([5]; iv loading bolus 1.5 mg/kg, then infusion 15 pg per kg per min (so in the source)): 314 ± 36 ng/mL
Compound: CS(=O)(=O)O.OC1CCC(Nc2nc(-c3ccccc3)nc3[nH]ccc23)CC1 (stereo not drawn) [substance 1, 4-[(2-phenyl-7H-pyrrolo[2,3-o]pyrimidin-4-yl)amino]-trans-cyclohexanol methanesulfonate]
- renal cortical vascular conductance ([2]; substance 1 5 mg/kg iv + Visipaque (FIG. 4)): maintained this parameter at levels seen in the vehicle control group
- cortical pO2 ([2]; substance 1 5 mg/kg iv + Visipaque, until the end of the experiment (FIG. 5)): significant increase
- renal cortical blood flow ([2]; substance 1 5 mg/kg iv + Visipaque, vs. Vehicle+Visipaque, 20 min measurement (FIG. 3)): sustained and significant increase
- effect on Visipaque-induced changes of medullary blood flow and medullary vascular conductance ([2]; substance 1 5 mg/kg iv + Visipaque, not shown): only partially (but significantly) prevented these effects
- effect on the Visipaque-induced increase in mean arterial blood pressure ([2]; substance 1 5 mg/kg iv bolus 30 min before Visipaque 1.5 mL i.a., not shown): partially prevented
- hemodynamic parameters (arterial blood pressure, RBF) before the Visipaque challenge ([2]; substance 1 5 mg/kg iv bolus, not shown): did not modify
- diuresis [3, 6]: 27.31 ± 2.36 mL per kg body weight per h
- sodium excretion [3, 6]: 3039 ± 354 μmol per kg body weight per h
- diuresis [3, 7]: 3.87 ± 0.40 mL per kg body weight per h
- sodium excretion [3, 7]: 338 ± 81 μmol per kg body weight per h
- diuresis [3, 8]: 3.34 ± 0.42 mL per kg body weight per h
- sodium excretion [3, 8]: 613 ± 121 μmol per kg body weight per h
- diuresis [3, 9]: 3.54 ± 0.50 mL per kg body weight per h
- sodium excretion [3, 9]: 842 ± 121 μmol per kg body weight per h
- persistence of the stimulating effect on diuresis ([3]; after contrast medium (diatrizoate) administration): at least 3 h
- potassium excretion ([3]; after diatrizoate, throughout the experiment, not shown): not relevantly affected
- chloride excretion ([3]; after diatrizoate, not shown): stimulated
- diuresis [3, 10]: 28.01 ± 2.02 mL per kg body weight per h
- sodium excretion [3, 10]: 3301 ± 306 μmol per kg body weight per h
- diuresis [3, 11]: 4.97 ± 0.30 mL per kg body weight per h
- sodium excretion [3, 11]: 520 ± 77 μmol per kg body weight per h
- diuresis [3, 12]: 3.13 ± 0.27 mL per kg body weight per h
- sodium excretion [3, 12]: 591 ± 88 μmol per kg body weight per h
- diuresis [3, 13]: 3.11 ± 0.36 mL per kg body weight per h
- sodium excretion [3, 13]: 830 ± 91 μmol per kg body weight per h
- conclusion from receptor binding and enzyme profiling (adenosine A1 receptor): selective adenosine A1 receptor ligand with some phosphodiesterase PDE4 inhibiting activity

- Permeability (%) (Permeability (Table 1)): 27.0%
- PGP-factor (PGP): 10.1
Compound: CS(=O)(=O)O.NC(=O)[C@@H]1C[C@H](O)CN1c1nc(-c2ccccc2)nc2[nH]ccc12 [substance 2, (4S)-4-hydroxy-1-(2-phenyl-7H-pyrrolo[2,3-a]pyrimidin-4-yl)-L-prolinamide methanesulfonate]
